According to US20200255714A1, “HYDROFLUOROEPOXIDE CONTAINING COMPOSITIONS AND METHODS FOR USING SAME” (3M INNOVATIVE PROPERTIES COMPANY, priority 2017, published 2020):

Columns and labels:
Type in all cases: physicochemical
[1] = Thermal stability under air sparging at elevated temperature (GC analysis); settings: 72 hour stir at 215° C.-220° C., sparging by air 0.4 L/min
Method: To a 3-neck 250 mL round bottom flask equipped with a water-cooled condenser, temperature probe, magnetic stir bar, and a ⅛ inch FEP tube connected to 10 micron steel frit was charged 2,3-bis(3,3,4,4,5,5,5-heptafluoro-2,2-bis(trifluoromethyl)pentyl) oxirane (70.4 g, 99 mmol). Sparging by air through the 10 micron steel frit at a rate of 0.4 L/min commenced and the internal temperature was slowly raised to 220° C. with stirring. After a 72 hour stir with the temperature held between 215° C.-220° C., the material was allowed to cool to room temperature.

[2] = Chemical stability with absorbents at 65° C. (GC-FID); settings: 16 hours, initial starting material 99.6
Method: The chemical stability was evaluated by charging a weighed amount of Preparatory Example PE1 into glass vials and then adding a weighed amount of absorbent. The samples were stirred with heating at 65° C. for 16 hours and then analyzed by GC-FID to determine whether any breakdown products were formed and whether the level of purity changed.

[3] = Vapor pressure by stirred-flask ebuilliometer method (ASTM E 1719-97)
Method: Vapor Pressure was measured using the stirred-flask ebuilliometer method described in ASTM E 1719-97 “Vapor Pressure Measurement by Ebuilliometry.” This method is also referred to as “Dynamic Reflux.” The method uses a 50-mL glass round-bottom flask. Vacuum was measured and controlled using a J-KEM vacuum controller (J-KEM Scientific, Saint Louis, Mo., US). The pressure transducer was calibrated on the day of measurement by comparison with full vacuum and with an electronic barometer. The procedure was to begin slowly heating the material, then vacuum was applied until boiling occurred and a steady drop wise reflux rate was established. Pot temperature and pressure reading were recorded, then the vacuum controller was set for a higher absolute pressure and the material was heated further until a new reflux point was established. The pressure level was raised in increments until the vapor pressure curve was obtained up to the atmospheric boiling point. The boiling point of PE1 at 760 mmHg was 238.3° C.

[4] = Kinematic viscosity by Ubbelohde capillary viscometer
Method: Kinematic Viscosity was measured using glass SCHOTT Ubbelohde capillary viscometers (Xylem, Inc., Germany). The viscometers were timed using a SCHOTT AVS 350 viscosity timer. For a temperature of 10° C., a Lawler temperature control bath was used (Lawler Manufacturing Corp., Edison, N.J., US). The viscometer measurement stand and glass viscometer were immersed in a temperature-controlled liquid bath filled with NOVEC 7500 (3M Company, Saint Paul, Minn., US) as the bath fluid. The Lawler temperature bath was fitted with a copper tubing coil for liquid nitrogen cooling with fine temperature control provided by the bath's electronic temperature control heater. The fluid was mechanically stirred to provide uniform temperature in the bath. The bath controlled temperature to within ±0.1° C., as measured by the built-in resistance temperature detector (RTD) temperature sensor. The sample liquid was added to the viscometer between the two fill lines etched on the viscometer. The AVS-350 automatically pumped the sample fluid above the upper timing mark, then released the fluid and measured the efflux times between the upper and lower timing marks. The fluid meniscus was detected by optical sensors as it passed each timing mark. The sample was drawn up and measured repeatedly, averaging multiple measurements. The glass viscometers were calibrated using Canon certified kinematic viscosity standard fluids to obtain a calibration constant (centistokes per second) for each viscometer. The measured kinematic viscosity (centistokes), was calculated as the average efflux time (seconds) times the constant (centistokes/second) for the viscometer used.

Structure (SMILES): FC(F)(F)C(F)(F)C(F)(F)C(CC1OC1CC(C(F)(F)F)(C(F)(F)F)C(F)(F)C(F)(F)C(F)(F)F)(C(F)(F)F)C(F)(F)F (stereo not shown) [PE1, 2,3-bis(3,3,4,4,5,5,5-heptafluoro-2,2-bis(trifluoromethyl)pentyl)oxirane]
- content of starting material in final mixture (GC analysis) [1]: approximately 99.4%
- decomposition (GC analysis) [1]: no decomposition
- GC-FID purity (%) ([2]; 4 Å molecular sieves): 99.6%
- GC-FID purity (%) ([2]; Activated carbon): 98.4%
- GC-FID purity (%) ([2]; Basic alumina): 99.7%
- GC-FID purity (%) ([2]; Potassium carbonate): 99.6%
- GC-FID purity (%) ([2]; Silica gel): 99.6%
- Vapor pressure ([3]; 20 ° C.): 0.026 mmHg
- Vapor pressure ([3]; 55 ° C.): 0.35 mmHg
- Vapor pressure ([3]; 78.6 ° C.): 1.5 mmHg
- Vapor pressure ([3]; 170.7 ° C.): 96.6 mmHg
- Vapor pressure ([3]; 204.3 ° C.): 296.9 mmHg
- Vapor pressure ([3]; 214.7 ° C.): 397.1 mmHg
- Vapor pressure ([3]; 237.7 ° C.): 731.3 mmHg
- boiling point ([3]; at 760 mmHg): 238.3 °C
- Kinematic Viscosity ([4]; 10.0 ° C.): 146.42 cSt
- Kinematic Viscosity ([4]; 25.0 ° C.): 36.22 cSt
- Kinematic Viscosity ([4]; 30.0 ° C.): 25.87 cSt
- Kinematic Viscosity ([4]; 40.0 ° C.): 14.49 cSt
